According to PubChem BioAssay (NCI):
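Interpolation was linear, between the two tested concentrations surrounding the appropriate level; five concentrations were tested over 48 hours in 96-well plates. TGI: total growth inhibition.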

Experiments:
Assay in all cases: NCI anticancer screen, dose series, 48 h
PC-3 prostate = system: PC-3 prostate
MALME-3M melanoma = system: MALME-3M melanoma
DU-145 prostate = system: DU-145 prostate
CAKI-1 renal = system: CAKI-1 renal
OVCAR-4 ovarian = system: OVCAR-4 ovarian
OVCAR-3 ovarian = system: OVCAR-3 ovarian
LOX IMVI melanoma = system: LOX IMVI melanoma
NCI/ADR-RES ovarian = system: NCI/ADR-RES ovarian
RPMI-8226 leukemia = system: RPMI-8226 leukemia
SR leukemia = system: SR leukemia
SK-MEL-28 melanoma = system: SK-MEL-28 melanoma
OVCAR-8 ovarian = system: OVCAR-8 ovarian
ACHN renal = system: ACHN renal
SF-295 CNS = system: SF-295 CNS
HCC-2998 colon = system: HCC-2998 colon

Structure (SMILES) | TGI (PC-3 prostate) | TGI (MALME-3M melanoma) | TGI (DU-145 prostate) | TGI (CAKI-1 renal) | TGI (OVCAR-4 ovarian) | TGI (OVCAR-3 ovarian) | TGI (LOX IMVI melanoma) | TGI (NCI/ADR-RES ovarian) | TGI (RPMI-8226 leukemia) | TGI (SR leukemia) | TGI (SK-MEL-28 melanoma) | TGI (OVCAR-8 ovarian) | TGI (ACHN renal) | TGI (SF-295 CNS) | TGI (HCC-2998 colon)
CC(=O)Nc1ccc2c3c(cc(O)c2c1)N(C(=O)CCCC(=O)N1CC(CCl)c2c1cc(O)c1cc(NC(C)=O)ccc21)CC3CCl (stereo not given) | 0.421 µM | 0.0318 µM | < 0.01 µM | 0.183 µM | 0.64 µM | 0.0262 µM | > 100 µM | > 100 µM | 0.0182 µM | < 0.01 µM | > 100 µM | > 100 µM | < 0.0112 µM | – | –
CC1=C(C#N)C(=C(C#N)C#N)OC1(C)Cc1ccccc1 (stereo not given) | > 100 µM | – | > 100 µM | 50.9 µM | 60.3 µM | 74.9 µM | 41 µM | > 100 µM | 96.8 µM | – | > 100 µM | > 100 µM | 32.7 µM | > 100 µM | 89.6 µM
COc1ccccc1Nc1nc2c([nH]1)c(=O)n(C)c(=O)n2C | > 10 µM | > 10 µM | > 10 µM | > 10 µM | > 10 µM | – | > 10 µM | – | > 10 µM | > 10 µM | > 10 µM | > 10 µM | – | > 10 µM | > 10 µM
OC1(C(Sc2cc(C(F)(F)F)cc(C(F)(F)F)c2)Sc2cc(C(F)(F)F)cc(C(F)(F)F)c2)C=CCCC1 (stereo not given) | – | 8.81 µM | 8.99 µM | 6.33 µM | 7.06 µM | 6.14 µM | 5.9 µM | 10.1 µM | 4.8 µM | – | 9.12 µM | 7.9 µM | 5.77 µM | 6.39 µM | 3.25 µM
CC1CC(N)=C(C#N)C1(C#N)C#N (stereo not given) | > 100 µM | > 100 µM | > 100 µM | 59.7 µM | – | – | > 100 µM | > 100 µM | > 100 µM | – | – | > 100 µM | > 100 µM | > 100 µM | > 100 µM
C[C@H](C1CC(C)(O)C(C)(O)C(O)O1)[C@H]1CC[C@H]2[C@@H]3[C@@H]4O[C@@H]4[C@@]4(O)CC=CC(=O)[C@]4(C)[C@H]3CC[C@]12C (stereo not given in full) | > 50 µM | 31.5 µM | > 50 µM | > 50 µM | > 50 µM | > 50 µM | > 50 µM | > 50 µM | > 50 µM | – | > 50 µM | > 50 µM | > 50 µM | > 50 µM | > 50 µM
COc1cccc(/C=N/n2c(Cc3ccccc3)n[nH]c2=O)c1 | > 100 µM | > 100 µM | > 100 µM | > 100 µM | > 100 µM | > 100 µM | > 100 µM | > 100 µM | > 100 µM | – | > 100 µM | > 100 µM | > 100 µM | > 100 µM | > 100 µM
O=C1C2C(C(=O)N1c1ccccc1)C1(c3ccccc3)CCC2(C(=O)c2ccccc2)O1 (stereo not given) | > 10 µM | > 10 µM | > 10 µM | > 10 µM | > 10 µM | > 10 µM | > 10 µM | > 10 µM | > 10 µM | – | > 10 µM | > 10 µM | > 10 µM | > 10 µM | > 10 µM
CSC1=N/C(=C\c2ccc(Cl)cc2)C(=O)N1CN1CCCCC1 | > 100 µM | 91.7 µM | > 100 µM | – | – | > 100 µM | > 100 µM | > 100 µM | > 100 µM | > 100 µM | > 100 µM | > 100 µM | 96.2 µM | > 100 µM | –
O=C(Nc1ccc(C(F)(F)F)cc1)NC(F)(F)F | > 100 µM | – | – | > 100 µM | – | – | > 100 µM | > 100 µM | > 100 µM | > 100 µM | > 100 µM | > 100 µM | > 100 µM | – | > 100 µM
COc1cc(C2C(Cl)C(=O)N2NC(=O)Cc2ccccc2)cc(Br)c1O (stereo not given) | – | > 100 µM | – | > 100 µM | > 100 µM | > 100 µM | > 100 µM | – | > 100 µM | > 100 µM | > 100 µM | > 100 µM | > 100 µM | > 100 µM | > 100 µM
Cc1ccc(C)n1-c1ccccc1C1C=Cn2c(=O)nnc3c(OC(C)C)c(OC(C)C)c(O)c1c32 (stereo not given) | > 100 µM | 76.5 µM | > 100 µM | > 100 µM | > 100 µM | > 100 µM | > 100 µM | > 100 µM | 42.4 µM | – | 38.1 µM | > 100 µM | > 100 µM | > 100 µM | > 100 µM
Cc1[nH]c(=O)nc2nc3cc(Cl)cc(Cl)c3c(NC(C)(CO)CO)c12 | > 100 µM | > 100 µM | > 100 µM | > 100 µM | > 100 µM | > 100 µM | > 100 µM | > 100 µM | – | – | > 100 µM | > 100 µM | > 100 µM | > 100 µM | > 100 µM
